Values quoted from earlier work as cited in patent US20230310465A1, “NANO LIPID CARRIER SYSTEM FOR IMPROVING PERMEATION OF ACTIVE INGREDIENTS” (LEIUTIS PHARMACEUTICALS LLP, priority 2020, published 2023).

Settings: from Akynezo, healthy subjects

## Cc1ccccc1-c1cc(N2CCN(C)CC2)ncc1N(C)C(=O)C(C)(C)c1cc(C(F)(F)F)cc(C(F)(F)F)c1 [Netupitant, 2-[3,5-bis(trifluoromethyl)phenyl]-N,2-dimethyl-N-[4-(2methylphenyl)-6-(4-methylpiperazin-1-yl)pyridin-3-yl]propenamide]
  Tmax: about 5 hrs
